From PMC9360614, “Discovery of TIGIT inhibitors based on DEL and machine learning” (Frontiers in Chemistry, 2022)

Target: T1, TIGIT/CD155 complex (Homo sapiens, UniProt Q495A1)
T1 construct: purchased 63ADK000CB07PEG
T1 sequence (Q495A1 22-141 limits assumed): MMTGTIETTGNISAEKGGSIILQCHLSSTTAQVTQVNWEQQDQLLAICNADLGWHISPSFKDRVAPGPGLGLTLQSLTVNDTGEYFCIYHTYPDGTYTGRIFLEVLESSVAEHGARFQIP
Experiment: HTRF TIGIT/CD155 binding assay (blocking of TIGIT/CD155 complex)
Conditions: for TIGIT binding effects compared with compound 1: derivatives with side chains R1, R2, R3 modified; for IC50: read-out: IC50, protein-protein blocking activity for TIGIT/CD155 complex
Procedure: Thus, the most enriched library molecule was found in the TIGIT screening and marked as potential ligand 1 (highlighted red in Figure 2A), whereas it was not observed in the bead-only control (Supplementary Figure S1B). The hit compound 1 was re-synthesized by “off-DNA” (the structure is shown in Figure 2B), and corresponding binding affinity was tested utilizing homogeneous time-resolved fluorescence (HTRF) technology.
For all compounds, the binding affinities were measured with TIGIT/CD155 Binding Assay (Immuno-Oncology, Part # 63ADK000CB07PEG) following the standard kit protocol.

SMILES	TIGIT binding effects compared with compound 1	IC50	binding affinity rank among derivatives
COc1ccc(C(NC(=O)[C@H](Cc2cccc(C#N)c2)NC(=O)[C@@H](C)c2ccc3cc(OC)ccc3c2)c2ccc(OCC(=O)O)cc2)c(OC)c1 (stereo partly shown) [Compound a19]	improved	–	–
COc1ccc(C(NC(=O)[C@H](Cc2ccsc2)NC(=O)c2ccc3cc(OC)ccc3c2)c2ccc(OCC(=O)O)cc2)c(OC)c1 (stereo partly shown) [Compound a6]	improved	–	–
COc1ccc(C(NC(=O)C(Cc2ccsc2)NC(=O)C(C)c2ccc3cc(OC)ccc3c2)c2ccc(OCC(=O)O)cc2)c(OC)c1 (stereo not shown) [Compound 1]	–	20.7 µM	–
COc1ccc(C(NC(=O)[C@H](Cc2ccc(F)cc2)NC(=O)[C@@H](C)c2ccc3cc(OC)ccc3c2)c2ccc(OCC(=O)O)cc2)c(OC)c1 (stereo partly shown) [Compound a18]	improved	–	–
COc1ccc(C(NC(=O)[C@H](Cc2ccsc2)NC(=O)/C=C/c2ccc3cc(OC)ccc3c2)c2ccc(OCC(=O)O)cc2)c(OC)c1 (stereo partly shown) [Compound a7]	improved	3.9 µM	highest binding affinity
COc1ccc2cc([C@H](C)C(=O)N[C@@H](Cc3csc4ccccc34)C(=O)NCc3ccc(OCC(=O)O)cc3)ccc2c1 [Compound a27]	improved	–	–
COc1ccc(C(NC(=O)[C@H](Cc2csc3ccccc23)NC(=O)[C@@H](C)c2ccc3cc(OC)ccc3c2)c2ccc(OCC(=O)O)cc2)c(OC)c1 (stereo partly shown) [Compound a16]	improved	–	–
COc1ccc(C(NC(=O)[C@H](Cc2ccccc2)NC(=O)[C@@H](C)c2ccc3cc(OC)ccc3c2)c2ccc(OCC(=O)O)cc2)c(OC)c1 (stereo partly shown) [Compound a17]	improved	–	–
